In PMC9271247, “Evaluation of antiplasmodial activity in silico and in vitro of N-acylhydrazone derivatives” (BMC Chemistry, 2022) one finds IC50 and CC50 data, which are given here for nine compounds.

As usually defined, the IC50 is the midpoint of a concentration-inhibition curve.

Where only a bound is given, the exact number is not on record here.

For series [1], the system named is Plasmodium falciparum chloroquine resistant (W2) strain. As to the kind of experiment: In vitro antiplasmodial activity, blood smear (traditional) test, 48 h. Conditions: W2, 48 h, read-out: IC50 ± SD P. falciparum. It is filed as cell-based. The protocol:
The parasites were synchronized using sorbitol treatment and the parasitemia was microscopically evaluated with Giemsa-stained blood smears.
After 48 h, blood smears were prepared, coded, stained with giemsa and examined at 1000×magnification. The parasitemia of controls (considered as 100% growth) was compared to test cultures, and then the percentage of infected red blood cells was calculated.
The results were expressed as mean of half-maximal inhibitory dose (IC50), with different drug concentrations performed in triplicate and compared with drug-free controls. Curve fitting was performed using OriginPro® 8.0 software (Origin Lab Corporation, Northampton, MA, USA).

The subject of series [2] is human lung fibroblast cell line WI-26VA4 (ATCC CCL-95.1). The series is described as follows: in vitro. Conditions: 48 h. The protocol:
(§1) Negative controls were composed of cells without treatment. Five serial dilutions (1:10) were made from a stock solution (10 mg mL − 1) using RPMI supplemented with 1% FBS. Cell viability was evaluated after 48 h of incubation by discarding the medium and adding 100 μL of 5% MTT, followed by 3 h of incubation. Then, the supernatant was discarded, and insoluble formazan product was dissolved in DMSO. The optical density (OD) of each well was measured using a microplate spectrophotometer at 550 nm. The OD of untreated control cells was defined as 100% cell viability and all assays were performed in triplicate. The selectivity index (SI) of samples was calculated by following Eq. 1 [29].1 SI=LC50of WI-26VA4 cell line/IC50ofP.falciparumstrain W2

Series [3] can be described thus: in vitro. The note with it: human, LC50 ± SD WI-26VA4. The protocol: as §1

For `O=C(N/N=C/c1cccc(O)c1)c1ccccc1` [AH1, N'-[(1E)-(3-hydroxyphenyl)methylene]benzohydrazide], in series [1], the IC50 amounted to 0.19 ± 0.1 µM. In addition, the CC50 in series [2] is over 100 µM. Also, the CC50 at 48 h in series [3] is over 100 µM.

For the compound `O=C(N/N=C/c1cccc(O)c1)c1ccc(Cl)cc1` [AH2, 4-chloro-N'-[(1E)-(3-hydroxyphenyl)methylene]benzohydrazide], the IC50 in series [1] came to 2.15 ± 0.09 µM. The CC50 in series [2] is over 100 µM. Moreover, the CC50 at 48 h in series [3] was over 100 µM.

As for `O=C(N/N=C/c1cccc(O)c1)c1ccc([N+](=O)[O-])cc1` [AH3, N'-[(1E)-(3-hydroxyphenyl)methylene]-4-nitrobenzohydrazide], the half-maximal inhibitory concentration (IC50) in series [1] was over 1 µM. For the same compound, the CC50 at 48 h in series [3] worked out at 100 ± 0.19 µM.

Consider `O=C(N/N=C/c1cccc(O)c1)c1ccc(O)cc1` [AH4, 4-hydroxy-N'-[(1E)-(3-hydroxyphenyl)methylene]benzohydrazide], for which the 50% inhibitory concentration (IC50) in series [1] was 0.09 ± 0.05 µM. In addition, in series [2], the CC50 was over 100 µM. The CC50 at 48 h in series [3] was over 100 µM.

With `O=C(N/N=C/c1cccc(O)c1)c1ccc(NC(=O)c2ccccc2)cc1` [AH5, N-(4-{[(2E)-2-(3-hydroxybenzylidene)hydrazino]carbonyl}phenyl) benzamide], in series [1], the half-maximal inhibitory concentration (IC50) came out at 0.07 ± 0.07 µM. Besides, the CC50 in series [2] is over 100 µM. For the same compound, in series [3], the CC50 at 48 h was over 100 µM.

With `O=C(O)CCC(=O)Nc1ccc(C(=O)N/N=C/c2cccc(O)c2)cc1` [AH6, 4-[(4-{[(2E)-2-(3-hydroxybenzylidene)hydrazino]carbonyl}phenyl)amino]-4-oxobutanoic acid], the IC50 in series [1] is over 1 µM. Further, the CC50 at 48 h in series [3] was determined as 100 ± 0.17 µM.

`O=C(N/N=C/c1cccc(O)c1)c1ccncc1` [AH7, N'-[(1E)-(3-hydroxyphenyl)methylene]isonicotinohydrazide]: the 50% inhibitory concentration (IC50) in series [1] is over 1 µM. Further, the CC50 at 48 h in series [3] was 100 ± 0.13 µM.

As for `CO[C@H]1O[C@@H]2O[C@@]3(C)CC[C@H]4[C@H](C)CC[C@@H]([C@H]1C)[C@@]24OO3` [Artemether, reference compound], the IC50 in series [1] was under 1.01 µM. Besides, the CC50 at 48 h in series [3] amounted to 100 ± 0.18 µM.

For the compound `CCN(CC)CCCC(C)Nc1ccnc2cc(Cl)ccc12` (stereo not drawn) [Chloroquine, reference compound], in series [1], the IC50 was found to be 0.057 ± 0.14 µM.
